Laboratory results published in patent publication US20240366611A1, “METHODS OF TREATING A DISEASE OR DISORDER” (Ascentage Pharma (Suzhou) Co., Ltd., priority 2021, published 2024).

Key:
[1] = tested on: TNBS induced IBD in Balb/c mice; assay: TNBS induced inflammatory bowel disease (IBD) model; type: in vivo
Method: Female Balb/c mice (8 weeks old) were obtained from Beijing Vital River Laboratory Animal Co. Ltd. Animals, and then housed and handled in a temperature-controlled environment with a 12-h light/12-h dark cycle. A total of 30 mice were assigned to 3 groups by randomization based on body weight.
On Day 0, the mice weighing 18-20 g were anesthetized with […] (Easycheck, M2910), and then further intra-rectally injected 100 μL 1.5% TNBS solution (final concentration in 50% ethanol) in the vehicle group and treatment groups. For the Sham group, the mice were intra-rectally injected with 50% ethanol at the same volume.
Mice in Group 1 and Group 2 were treated with vehicle for 8 days (po, qd, from day −1 to day 6). Mice in Group 3 were treated with 90 mg/kg Cpd. 73 for 8 days (po, qd, from day −1 to day 6). The protocols and procedures involving the care and use of animals were approved by the Institutional Animal Care and Use Committee (IACUC) at WuxiApptec (Shanghai, China).
Clinical signs of IBD were assessed every day based on the score of disease activity index (DAI) which was evaluated from three parameters using a scoring system from 0 to 4: stool consistency (0, normal stool; 1, soft but still formed stool; 2, soft and not formed stool; 3, very soft and wet stool; 4, watery diarrhea), bleeding score (0, negative hemoccult; 1, weak positive hemoccult; 2, positive hemoccult; 3, blood trace in stool visible; 4, gross rectal bleeding) and body weight loss (0, no body weight loos; 1, 1-5% body weight loss; 2, 6-10% body weight loss; 3, 11-20% body weight loss; 4, >20% body weight loss).
At the end of experiment (day 7), the animals were euthanized, dissected and the entire colon was quickly removed and gently cleared of feces.
At the end of experiment, the animals were euthanized, and blood was collected immediately by the heart punctures and used for whole blood cell analysis.
At the end of the study (day 7), the cell suspensions from sham control, model control and Cpd. 73 treatment groups were obtained from mesenteric lymph nodes (MLN). Cells were stained with the following florescence-labelled antibodies: APC-Cy7-conjugated anti-mouse CD45, BV510-conjugated anti-mouse CD3e, AF700-conjugated anti-mouse CD8a, BUV395-conjugated anti-mouse CD4, BV421-conjugated anti-mouse CD25, FITC-conjugated anti-mouse Foxp3, BV650-conjugated anti-mouse IFN-γ, APC-conjugated anti-mouse B220, BV395-conjugated anti-mouse CD3e, BV605-conjugated anti-mouse CD11b, BB700-conjugated anti-mouse CD11c, AF488-conjugated anti-mouse MHCII, BV421-conjugated anti-mouse NK1.1, BV510-conjugated anti-mouse Ly6G, PE-Cy7-conjugated anti-mouse CD107a and PE-CF594-conjugated anti-mouse F4/80. All cells were primarily gated on single and live lymphocytes based on forward scatter (FCS), side scatter (SSC) and live/dead staining buffer. Samples were analyzed on a flow cytometer (BD LSRFortessa) to count the percentage of each subtype of lymphocytes.
At the end of the study (day 7), all the animals were sacrificed by CO2. The colon was Swiss-rolled and fixed with neutralized PFA followed by H&E staining. After that, the pathologists from WuXi clinical pathological analysis platform, who were blinded to animal ID, reviewed the H&E staining and scored. The pathological scoring standards were as follows: crypt architecture (normal, 0; severe crypt distortion with loss of entire crypts, 3), degree of inflammatory cell infiltration (normal, 0; dense inflammatory infiltrate, 3), muscle thickening (normal, 0; marked muscle thickening present, 3), goblet cell depletion (absent, 0; present, 1) and crypt abscess (absent, 0; present, 1).
The fixed colon was stained with Masson's Trichrome to assess the collagen fibers in colon tissue. The Masson's Trichrome staining procedures was followed the standard protocol. After that, the pathological doctors from WuXi clinical pathological analysis platform reviewed the whole slices and scored blinded with animal information. […]

[2] = tested on: DSS induced IBD in C57BL/6 mice; assay: DSS induced inflammatory bowel disease (IBD) model; type: in vivo; conditions: 90 mg/kg po qd day 0 to day 7
From the text: Female C57BL/6 mice (8 weeks old) were obtained from Beijing Vital River Laboratory Animal Co. Ltd. Animals were housed and handled in a temperature-controlled environment with a 12-h light/12-h dark cycle. A total of 30 mice were assigned to 3 groups by randomization based on body weight.
On Day 0, colitis was induced by administration of 3% DSS (dextran sodium sulfate, molecular weight 36,000-50,000) in drinking water ad libitum for 8 days. 8-week-old mice were divided into 3 groups: Group 2, DSS treatment group (vehicle, po, qd, from day 0 to day 7); Group 3, DSS with 90 mg/kg Cpd. 73 (po, qd, from day 0 to day 7); and the Group 1 (G1) Naive group, the mice were provided drinking water without DSS. The protocols and procedures involving the care and use of animals were approved by the Institutional Animal Care and Use Committee (IACUC) at Wuxi Apptec (Shanghai, China).
At the end of the study, the animals were euthanized, dissected and the entire colon was quickly removed and gently cleared of feces.
At the end of the study (day 8), all the animals were sacrificed by CO2. The colon was Swiss-rolled and fixed with neutralized PFA followed by H&E staining. After that, the pathologists from WuXi clinical pathological analysis platform, who were blinded to animal ID, reviewed the H&E staining and scored. […]

[3] = 90 mg/kg po qd day −1 to day 6, end of experiment, vs vehicle
[4] = 90 mg/kg po qd day −1 to day 6, vs vehicle
[5] = 90 mg/kg, day 7, flow cytometry, vs vehicle control

Question: For `CC(C)N1Cc2cc(C(F)(F)F)ncc2-c2cnc(NCc3c(F)ccc4c3CCO4)n3cnc(c23)C1=O` [Cpd. 73, 12-(((5-fluoro-2,3-dihydrobenzofuran-4-yl)methyl)amino)-4-isopropyl-7-(trifluoromethyl)-4,5-dihydro-3H-2,4,8,11,12a-pentaazabenzo[4,5]cycloocta[1,2,3-cd]inden-3-one], which colon length ([1]; 90 mg/kg po qd day −1 to day 6, day 7, vehicle 6.26±0.17 cm) is on record?
Answer: The colon length was 8.79±0.22 cm.

Question: What about the “pathological score (H&E, colon)” value ([1]; 90 mg/kg po qd day −1 to day 6, day 7, vehicle 10.33±0.35) of the same compound?
Answer: Its value is 1.70±0.37.

Question: And the colon weight ([1]; 90 mg/kg po qd day −1 to day 6, day 7, vehicle 336.8±26.68 mg)?
Answer: The colon weight was 213.8 ± 6.08 mg.

Question: And the “anemia (red blood cells and hemoglobin in peripheral blood)” value ([1]; 90 mg/kg po qd day −1 to day 6, end of experiment)?
Answer: Its value is “improved”.

Question: What about the “cell number of monocytes in peripheral blood” value [1, 3] of the same compound?
Answer: Its value is “significantly reduced”.

Question: What about the “cell number of neutrophils in peripheral blood” value [1, 3] of the same compound?
Answer: Its value is “significantly reduced”.

Question: What about the “fibrosis score (Masson's Trichrome, colon)” value ([1]; 90 mg/kg po qd day −1 to day 6, vehicle 4.33±0.30) of the same compound?
Answer: Its value is 1.10±0.17.

Question: And the DAI score [1, 4]?
Answer: Its DAI score is “significantly reducing”.

Question: What about the body weight loss [1, 4] of the same compound?
Answer: Its body weight loss is “improving”.

Question: What about the “percentage of IFN-γ secreting CD4+ T cells (Th1 cells) in MLN” value [1, 5] of the same compound?
Answer: Its value is “significantly reduced”.

Question: What about the “percentage of NK cells in MLN” value [1, 5] of the same compound?
Answer: Its value is “significantly reduced”.

Question: What about the “percentage of activated NK cells in MLN” value [1, 5] of the same compound?
Answer: The value was “significantly reduced”.

Question: And the “percentage of macrophages in MLN” value [1, 5]?
Answer: Its value is “significantly reduced”.

Question: What about the “percentage of neutrophils in mesenteric lymph nodes (MLN)” value [1, 5] of the same compound?
Answer: Its value is “significantly reduced”.

Question: What about the “pathological score (H&E, colon)” value ([2]; day 8, vehicle 10.10±0.18) of the same compound?
Answer: The value was 8.30±0.54.

Question: What about the “colon density (colon weight/colon length)” value ([2]; vehicle 50.88±2.53) of the same compound?
Answer: Its value is 41.86±2.57.
